The text below walks through data of article PMC5077133, “Towards Development of Small Molecule Lipid II Inhibitors as Novel Antibiotics” (PLoS ONE, 2016).

One data set has as its system E. aerogenes ATCC 13048. Briefly: Antibacterial activity (MIC, broth dilution). As to conditions: CLSI. In kind it is cell-based. As for the experimental part: (§1) Determination of the Minimal Inhibitory Concentrations (MIC) by dilution was carried out by broth dilution according to CLSI standards.
Background: Dilution methods test growth across graded concentrations, often in twofold steps.

Data set [1] relates to S. aureus HFH-30123 (MRSA). Briefly: Antibacterial activity (MIC, broth dilution). Format: cell-based. As to conditions: CLSI. The method, then: as §1
For a further data set, the system named is E. cloacae ATCC 13047. The data set is described as follows: Antibacterial activity (MIC, broth dilution). As to conditions: CLSI. Format: cell-based. The method, then:
as §1

In a further data set the test system is E. faecium EF1509 (VRE). Briefly: Antibacterial activity (MIC, broth dilution). In kind it is cell-based. Conditions: CLSI, in µg/mL. As for the experimental part: as §1
Another data set has as its system P. aeruginosa X13273. The data set is described as follows: Antibacterial activity (MIC, broth dilution). Format: cell-based. As to conditions: CLSI, in µg/mL. The method, then: as §1
The next data set deals with E. faecium F118 (VRE). The data set is described as follows: Antibacterial activity (MIC, broth dilution). In kind it is cell-based. As to conditions: CLSI, in µg/mL. The method, then:
as §1

The next data set concerns S. aureus MRSA 1094. The data set is described as follows: Antibacterial activity (MIC, broth dilution). In kind it is cell-based. As to conditions: CLSI. The method, then: as §1
In a further data set the test system is P. aeruginosa ATCC 27853. Briefly: Antibacterial activity (MIC, broth dilution). In kind it is cell-based. As to conditions: CLSI. As for the experimental part: as §1
The subject of data set [2] is K. pneumoniae NR-15410 (KPC). The data set is described as follows: Antibacterial activity (MIC, broth dilution). In kind it is cell-based. Conditions: CLSI. As for the experimental part: as §1
The next data set has as its system P. aeruginosa PA01. The data set is described as follows: Antibacterial activity (MIC, broth dilution). In kind it is cell-based. Conditions: CLSI. As for the experimental part:
as §1

Data set [3] relates to K. pneumoniae NR-15411 (KPC). The data set is described as follows: Antibacterial activity (MIC, broth dilution). Conditions: CLSI. Format: cell-based. The method, then:
as §1

A further data set deals with HeLa cells. The data set is described as follows: Cytotoxicity against mammalian cells (MTS assay). Format: cell-based. The essentials: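 HeLa cells exposed 72 h in RPMI1640 to compounds at 64 to 0.125 μg/ml, in triplicate. Viability measured as mitochondrial activity by MTS, and CC50 taken against a standard curve of serially diluted untreated cells.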
For orientation: Tetrazolium dyes change colour on reduction, which living cells bring about.

The next data set relates to A. baumanii ATCC 19606. The data set is described as follows: Antibacterial activity (MIC, broth dilution). In kind it is cell-based, Acinetobacter baumanii. As to conditions: CLSI, in µg/mL. In a few lines:
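MIC determined by broth dilution following CLSI standards, using A. baumanii ATCC 19606.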

Data set [4] is described as follows: Lipid II binding by Surface Plasmon Resonance. Conditions: SPR, immobilized 3-Lipid II, 25°C. In a few lines:
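Farnesyl (3-isoprene) Lipid II amine-coupled (50 RUs) on CM5 chips. Compounds injected at 10 μM, 30 μl/min, 25°C, in 10 mM HEPES, 150 mM NaCl, 0.05% P20, pH 7.4 (± 3 mM EDTA), 10% DMSO. Signals corrected against control flow-cell; kinetics fitted from binding isotherms.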

In the data set on E. aerogenes ATCC 13048, `Cc1cc(/C=C/c2ccc(N(C)C)cc2)cc(C)[o+]1.F[B-](F)(F)F` [6jc37] displayed an Antibacterial activity (MIC) E. aerogenes ATCC 13048 of at least 64 µg/mL. This compound returned an Antibacterial activity (MIC) S. aureus HFH-30123 (MRSA) in data set [1] of 16 µg/mL. In the data set with E. cloacae ATCC 13047, the Antibacterial activity (MIC) E. cloacae ATCC 13047 is at least 64 µg/mL. Further, the “Antibacterial activity (MIC) E. faecium EF1509 (VRE)” value in the data set on E. faecium EF1509 (VRE) came out at 64. Further, the “Antibacterial activity (MIC) P. aeruginosa X13273” value in the data set with P. aeruginosa X13273 is “>=64”. The “Antibacterial activity (MIC) E. faecium F118 (VRE)” value with E. faecium F118 (VRE) was 64. In addition, the Antibacterial activity (MIC) S. aureus MRSA 1094 in the data set on S. aureus MRSA 1094 was 16 µg/mL. In the data set with P. aeruginosa ATCC 27853, this compound had an Antibacterial activity (MIC) P. aeruginosa ATCC 27853 of at least 64 µg/mL. In [2], this compound yielded an Antibacterial activity (MIC) K. pneumoniae NR-15410 (KPC) of at least 64 µg/mL. Further, the Antibacterial activity (MIC) P. aeruginosa PA01 in the data set on P. aeruginosa PA01 was at least 64 µg/mL. In data set [3], this compound yielded an Antibacterial activity (MIC) K. pneumoniae NR-15411 (KPC) of at least 64 µg/mL. In addition, the “CC50% (72 h HeLa cells)” value in the data set with HeLa cells turned out to be 18.96. The “Antibacterial activity (MIC) A. baumanii ATCC 19606” value in the data set with A. baumanii ATCC 19606 is “>=64”. For the same compound, the “Lipid II binding Kd” value in data set [4] is reported as “No”.

One may read the Kd as the equilibrium constant for the complex coming apart. Higher therefore signals lower affinity. Compound `Clc1ccc(-c2cc(/C=C/c3cc4c5c(c3)CCCN5CCC4)[o+]c(-c3ccc(Cl)cc3)c2)cc1.F[B-](F)(F)F` [6jc-69-4] showed an Antibacterial activity (MIC) E. aerogenes ATCC 13048 with E. aerogenes ATCC 13048 of at least 64 µg/mL. Moreover, the Antibacterial activity (MIC) S. aureus HFH-30123 (MRSA) in [1] came to 8 µg/mL. The same compound gave an Antibacterial activity (MIC) E. cloacae ATCC 13047 with E. cloacae ATCC 13047 of at least 64 µg/mL. For the same compound, the “Antibacterial activity (MIC) E. faecium EF1509 (VRE)” value in the data set with E. faecium EF1509 (VRE) is reported as 4. For the same compound, in the data set with P. aeruginosa X13273, the “Antibacterial activity (MIC) P. aeruginosa X13273” value is “>=64”. In addition, the “Antibacterial activity (MIC) E. faecium F118 (VRE)” value in the data set on E. faecium F118 (VRE) was found to be 5.66. Further, the Antibacterial activity (MIC) S. aureus MRSA 1094 with S. aureus MRSA 1094 turned out to be 8 µg/mL. The compound also displayed an Antibacterial activity (MIC) P. aeruginosa ATCC 27853 in the data set on P. aeruginosa ATCC 27853 of at least 64 µg/mL. In addition, the Antibacterial activity (MIC) K. pneumoniae NR-15410 (KPC) in data set [2] is at least 64 µg/mL. This compound also came in with an Antibacterial activity (MIC) P. aeruginosa PA01 in the data set with P. aeruginosa PA01 of at least 64 µg/mL. Also, the Antibacterial activity (MIC) K. pneumoniae NR-15411 (KPC) in [3] is at least 64 µg/mL. Besides, the “CC50% (72 h HeLa cells)” value in the data set on HeLa cells came to 3.09. Further, the “Antibacterial activity (MIC) A. baumanii ATCC 19606” value with A. baumanii ATCC 19606 is on record as “>=64”. The Kd in data set [4] amounted to 30.3 ± 0.5 µM.

In turn, `CCc1ccc(-c2cc(/C=C/C=C/c3ccc(N(C)C)cc3)[o+]c(-c3ccc(CC)cc3)c2)cc1.F[B-](F)(F)F` [6jc64-2] had an Antibacterial activity (MIC) E. aerogenes ATCC 13048 with E. aerogenes ATCC 13048 of at least 64 µg/mL. In data set [1], this compound returned an Antibacterial activity (MIC) S. aureus HFH-30123 (MRSA) of 8 µg/mL. The same compound showed an Antibacterial activity (MIC) E. cloacae ATCC 13047 in the data set with E. cloacae ATCC 13047 of at least 64 µg/mL. The “Antibacterial activity (MIC) E. faecium EF1509 (VRE)” value in the data set on E. faecium EF1509 (VRE) is 5.66. The “Antibacterial activity (MIC) P. aeruginosa X13273” value in the data set on P. aeruginosa X13273 is “>=64”. Also, in the data set with E. faecium F118 (VRE), the “Antibacterial activity (MIC) E. faecium F118 (VRE)” value turned out to be 16. In the data set on S. aureus MRSA 1094, this compound yielded an Antibacterial activity (MIC) S. aureus MRSA 1094 of 8 µg/mL. In addition, the Antibacterial activity (MIC) P. aeruginosa ATCC 27853 in the data set on P. aeruginosa ATCC 27853 was at least 64 µg/mL. In addition, the Antibacterial activity (MIC) K. pneumoniae NR-15410 (KPC) in data set [2] was at least 64 µg/mL. This compound also registered an Antibacterial activity (MIC) P. aeruginosa PA01 in the data set with P. aeruginosa PA01 of at least 64 µg/mL. The compound also yielded an Antibacterial activity (MIC) K. pneumoniae NR-15411 (KPC) in data set [3] of at least 64 µg/mL. In addition, in the data set on HeLa cells, the “CC50% (72 h HeLa cells)” value is “<.78125”. Further, the “Antibacterial activity (MIC) A. baumanii ATCC 19606” value in the data set with A. baumanii ATCC 19606 is reported as “>=64”. Besides, the affinity in data set [4], expressed as Kd, was 23.8 ± 4 µM.

`Brc1ccc(-c2cc(/C=C/c3cc4c5c(c3)CCCN5CCC4)[o+]c(-c3ccc(Br)cc3)c2)cc1.F[B-](F)(F)F` [6jc-69-5] came in with an Antibacterial activity (MIC) E. aerogenes ATCC 13048 in the data set with E. aerogenes ATCC 13048 of at least 64 µg/mL. The Antibacterial activity (MIC) S. aureus HFH-30123 (MRSA) in data set [1] worked out at 64 µg/mL. Also, the Antibacterial activity (MIC) E. cloacae ATCC 13047 with E. cloacae ATCC 13047 is at least 64 µg/mL. The “Antibacterial activity (MIC) E. faecium EF1509 (VRE)” value in the data set with E. faecium EF1509 (VRE) is 6. Further, the “Antibacterial activity (MIC) P. aeruginosa X13273” value in the data set with P. aeruginosa X13273 is recorded as “>=64”. Also, the “Antibacterial activity (MIC) E. faecium F118 (VRE)” value with E. faecium F118 (VRE) turned out to be 11.31. Also, in the data set with S. aureus MRSA 1094, the Antibacterial activity (MIC) S. aureus MRSA 1094 is at least 64 µg/mL. The same compound had an Antibacterial activity (MIC) P. aeruginosa ATCC 27853 with P. aeruginosa ATCC 27853 of at least 64 µg/mL. The Antibacterial activity (MIC) K. pneumoniae NR-15410 (KPC) in data set [2] was at least 64 µg/mL. In addition, the Antibacterial activity (MIC) P. aeruginosa PA01 with P. aeruginosa PA01 was at least 64 µg/mL. In data set [3], this compound came in with an Antibacterial activity (MIC) K. pneumoniae NR-15411 (KPC) of at least 64 µg/mL. In the data set with HeLa cells, the “CC50% (72 h HeLa cells)” value came to 4.43. Besides, the “Antibacterial activity (MIC) A. baumanii ATCC 19606” value with A. baumanii ATCC 19606 is given as “>=64”. This compound registered a Kd in [4] of 32.7 ± 2 µM.
